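Test compounds were applied to cells in 96-well plates for 48 hours at 5 doses. The concentration for 50% growth inhibition is given as GI50.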 Calls of active or inactive are those of the source. Cut-off read from the data, not from the text of the source: active = GI50 up to about 1.1 µM and inactive = higher.
Assays:
Assay in all cases: growth of human tumour cells (NCI), 48 h
MDA-N = system: MDA-N
A549 = system: A549
T47D = system: T47D
SW-620 = system: SW-620
MOLT-4 = system: MOLT-4
SK-OV-3 = system: SK-OV-3
EKVX = system: EKVX
OVCAR-5 = system: OVCAR-5
TK-10 = system: TK-10
MCF7 = system: MCF7
KM12 = system: KM12
SK-MEL-28 = system: SK-MEL-28
SNB-19 = system: SNB-19
HOP-62 = system: HOP-62
DU-145 = system: DU-145
UACC-257 = system: UACC-257
SK-MEL-2 = system: SK-MEL-2
OVCAR-8 = system: OVCAR-8
MDA-MB-231 = system: MDA-MB-231
OVCAR-4 = system: OVCAR-4

Measured: GI50

Cc1ccc(C(=O)N/N=C(\N=N\c2ccc([N+](=O)[O-])cc2)c2ccc(N(CCC#N)CCC#N)cc2C)cc1
inactive: MDA-N 78.9 µM | A549 70.1 µM | T47D 26.6 µM | SW-620 > 100 µM | MOLT-4 57.3 µM | SK-OV-3 > 100 µM | EKVX > 100 µM | OVCAR-5 > 100 µM | TK-10 > 100 µM | MCF7 83.6 µM | KM12 39.5 µM | SK-MEL-28 97.1 µM | SNB-19 > 100 µM | HOP-62 71.4 µM | DU-145 97.1 µM | UACC-257 77.6 µM | SK-MEL-2 49.5 µM | OVCAR-8 28.1 µM | MDA-MB-231 > 100 µM | OVCAR-4 99.8 µM

N#Cc1c(Cl)c2cccnc2n2c1nc1ccccc12
inactive: MDA-N 3.62 µM | A549 6.59 µM | T47D 2 µM | SW-620 1.87 µM | MOLT-4 2.04 µM | SK-OV-3 15.5 µM | EKVX 4.22 µM | OVCAR-5 14.2 µM | TK-10 1.67 µM | MCF7 2.71 µM | KM12 6.41 µM | SK-MEL-28 3.64 µM | SNB-19 15.8 µM | HOP-62 16.6 µM | DU-145 1.98 µM | UACC-257 2.69 µM | SK-MEL-2 8 µM | OVCAR-8 1.96 µM | MDA-MB-231 2.13 µM | OVCAR-4 2.66 µM

O=NN(CCCl)C(=O)NCCCl [CARMUSTINE]
inactive: MDA-N 71.3 µM | A549 103 µM | T47D 110 µM | SW-620 52.2 µM | MOLT-4 33.5 µM | SK-OV-3 115 µM | EKVX 120 µM | OVCAR-5 105 µM | TK-10 93.1 µM | MCF7 68.9 µM | KM12 88.9 µM | SK-MEL-28 81.5 µM | SNB-19 68.4 µM | HOP-62 97.3 µM | DU-145 169 µM | UACC-257 75.5 µM | SK-MEL-2 91 µM | OVCAR-8 77.8 µM | MDA-MB-231 91 µM | OVCAR-4 87.9 µM
